Literature values in publication PMC4499460 (The Journal of organic chemistry, 2015).

Details: in 1 N H2SO4

C=C[C@H]1CN2CC[C@H]1C[C@H]2[C@H](O)c1ccnc2ccc(OC)cc12.O=S(=O)(O)O [quinine bisulfate]
ϕf of quantum yield reference: 0.54
